Experiments:
[1] = system: fli1:EGFP zebrafish embryos (intersegmental vessel growth); assay: fli1:EGFP zebrafish embryo angiogenesis assay; type: in vivo; parameters: fli1:EGFP angiogenesis n (survived/tested): concentration or dose not given beside the values; details: for minimal effective concentration: Danio rerio, lowest concentration producing an effect, compounds not producing an effect shown at the highest evaluated concentration; for fli1:EGFP angiogenesis n (survived/tested): embryos alive after 24 hours of exposure
From the text: Zebrafish embryology: The use of zebrafish embryo (Danio rerio) bioassays as a preclinical model in the classification of novel compounds has increased in recent years due to several factors including; low cost, ease of maintenance, speed of embryonic development, transparency of the embryos and genetic conservation between zebrafish and humans (Howe et al., Nature 2013; 496:498; Therapontos et al., PNAS 2009, 106:8573; Mahony et al., PNAS 2013, 110:12703; Beedie et al., Oncotarget 2016, 7(22):33237; Beedie et al., Mol. Cancer Ther. 2015, 14(10):2228). Two established zebrafish reporter lines were used—the fli1:EGFP line, where the fli1 promoter drives expression of enhanced green fluorescent protein within the developing vasculature (Lawson et al., 2002), and the Tg(mpo::EGFP) line (also known as mpo:GFP), which expresses green fluorescent protein via the neutrophil specific myeloperoxidase promoter (Renshaw et al., Blood 2006, 108:3976). The use of these zebrafish transgenic reporter lines allows for the identification of potential anti-angiogenic and anti-inflammatory compounds respectively, and both have been used previously to successfully classify the action of thalidomide analogs (Therapontos et al., 2009; Mahony et al., 2013; Beedie et al., Oncotarget 2016, 7(22):33237; Beedie et al., Mol. Cancer Ther. 2015, 14(10):2228). Zebrafish embryos were treated with analogs as previously described (Mahony et al., 2013). Briefly, fli1:EGFP embryos were collected and embryos were allowed to develop for 24 hours. Embryos were dechorionated manually and exposed to test compounds or vehicle control for a further 24 hours, imaged and analyzed for intersegmental vessel (ISV) growth. At 24 hours post fertilisation (hpf) the ISVs were ideal to study to visualize and analyze the actions of compounds on angiogenesis. At this time point ISVs were rapidly forming beneath the developing head, over the body and had yet to form in the tail (Lawson and Weinstein, Developmental Biology 2002, 248:307; Therapontos and Vargesson, Developmental Dynamics 2010, 239:2761). Additionally, these sprouts would go on to form the bilateral dorsal longitudinal anastomotic vessels. By treating before this fusion and formation occurs, the effect of each compound on the individual vessels as well as overall patterning structural integrity (Isogai et al., Development 2003, 130:5281) could be determined. Tg(mpo::EGFP) were tail fin clipped as previously detailed (Renshaw et al., 2006; Mahony et al., 2013; Beedie et al., Oncotarget 2016, 7(22):33237; Beedie et al., Mol. Cancer Ther. 2015, 14(10):2228) and incubated with test compounds or vehicle control at 72 hours post fertilization. Fish were imaged at 24 hours and the number of migratory neutrophils present at the wound site were counted. Compounds inducing an at least 50% reduction of neutrophils to the wound site were considered to have anti-inflammatory properties in this system. All larvae were assessed for viability and morphological integrity.
To determine if the thalidomide analogs had any effect on angiogenesis, fli1:EGFP embryos (Lawson and Weinstein, Developmental Biology 2002, 248:307-318) were exposed to either vehicle or a compound of interest, over a range of concentrations and over a range of time points starting at 24 hpf. Images were obtained at three time points over 24 hours after exposure to the compounds. The best concentration and time point were selected. CPS49, a compound that is chemically and structurally similar to thalidomide breakdown products, and is tetrafluorinated (which adds stability and bioactivity to the compound) and that causes severe limb defects in chicken embryos, was used as a positive control. The embryos were imaged at 48 hpf (FIGS. 3A3L) and analyzed for both vessel formation and the extent of growth of the vasculature. […]

TNF-α protein = TNF-α protein level (ELISA) in LPS-challenged RAW 264.7 cells; type: cell-based, mouse; parameters: key: NS=not significant; a “+” sign=anti-inflammatory or increased cell numbers; a “−” sign=cell toxicity or pro-inflammatory; details: LPS 30 or 60 ng/mL, 24 h
Experimental: (§1) Nitrite levels in the culture media were measured by use of the Griess Reagent System (Promega, Madison, Wis.), following the manufacturer's protocol. The O.D. of unknown samples was read at 520 nm λ, compared to a sodium nitrite standard curve (1.5 μM to 100 μM) and nitrite measured media concentrations expressed as μM units. As the lowest nitrite concentration on the Griess Reagent System standard curve was 1.5 μM, this was chosen as the effective cutoff for defining measurable nitrite concentrations. TNF-α protein levels were measured by use of an ELISA specific for mouse TNF-α protein (BioLegend, San Diego, Calif.) and are expressed as a % change from their appropriate control or as pg/ml.
(§2) RAW 264.7 cells obtained from ATCC (Manassas, Va., USA) were grown in DMEM media supplemented with 10% FCS, penicillin 100 μg/ml and streptomycin 100 μg/ml, and maintained at 37° C. and 5% CO2. Cells were seeded in 24 well plates and, 24 hours later, were utilized in studies. One hour prior to the initiation of any study, the seeding media was replaced with fresh media (1 mL), and the cells were allowed to equilibrate at 37° C. and 5% CO2.
(§3) RAW 264.7 cells were challenged with LPS (Sigma, St Louis, Mo.: serotype 055:B5) from at a final concentration of 30 or 60 ng/mL. This concentration of LPS in RAW 264.7 cells induces a sub-maximal rise in both TNF-alpha and nitrite levels without a loss in cellular viability. This sub-maximal rise is useful for assessing whether the addition of an experimental drug can either lower or further raise levels of TNF-α and nitrite. Twenty four hours following the addition of LPS, conditioned media was harvested and analyzed for quantification of secreted TNF-α protein and nitrite levels. Fresh media was replaced into the wells and cell viability was then assessed.
(§4) Thalidomide and analogs were prepared in tissue culture grade DMSO (Sigma). RAW 264.7 cells were pretreated with thalidomide, analogues or vehicle one hour prior to a challenge with LPS. The effects of various concentrations of thalidomide analogues were assessed. All compounds were synthesized to a chemical purity of >99.5%, as assessed by chemical characterization by a combination of 1H NMR, 13C NMR and GC/MS analyses (Bruker AC-300 spectrometer, together with elemental analyses (Atlantic Microlab, Inc., Norcross, Ga.).

[2] = system: nitrite levels in the culture media; assay: Nitrite level (Griess Reagent System) in LPS-challenged RAW 264.7 cells; type: cell-based, mouse; parameters: key: NS=not significant; a “+” sign=anti-inflammatory or increased cell numbers; a “−” sign=cell toxicity or pro-inflammatory; details: LPS 30 or 60 ng/mL, 24 h
Experimental: as §1, §2, §3, §4

RAW 264.7 cells = assay: Cell viability (CellTiter 96 AQueous One) of LPS-challenged RAW 264.7 cells; type: cell-based, mouse; parameters: key: NS=not significant; a “+” sign=anti-inflammatory or increased cell numbers; a “−” sign=cell toxicity or pro-inflammatory
Experimental: The CellTiter 96® AQueous One Solution Cell Proliferation Assay (Promega, Madison, Wis.) is routinely used as an assay of cell proliferation, and was used according to the manufacturer's recommendations. Changes in cellular health status are determined by use of indirect measures related to the formation of a colored tetrazolium dye product that can be measured spectrophotometrically at 490 nm λ. […] Optical densities (expressed as O.D.s) were measured after various incubations.
as §2, §3, §4

SMILES	anti-angiogenic effect (loss of ISVs or inhibition of ISV outgrowth) ([1]; in words)	TNF-α (TNF-α protein; 1 μM)	TNF-α (TNF-α protein; 10 μM)	TNF-α (TNF-α protein; 30 μM)	minimal effective concentration [1] [µg/mL]	fli1:EGFP angiogenesis n (survived/tested) [1]	Nitrite ([2]; 1 μM)	Nitrite ([2]; 10 μM)	Nitrite ([2]; 30 μM)	Viability (RAW 264.7 cells; 1 μM)	Viability (RAW 264.7 cells; 10 μM)	Viability (RAW 264.7 cells; 30 μM)	TNF-α (TNF-α protein; 60 μM)	Nitrite ([2]; 60 μM)	Viability (RAW 264.7 cells; 60 μM)
O=C1c2c(F)c(F)c(F)c(F)c2C(=O)N1c1ccc(F)cc1F [CPS49, reference compound]	decrease in blood vessel length														
CC(N1Cc2c(cccc2[N+](=O)[O-])C1=S)C12CC3CC(CC(C3)C1)C2 (stereo not shown) [Compound 89]		NS	NS	NS	10	7/11	NS	+	+	NS	NS	−			
C[C@H]1[C@H](N2Cc3c(N)cccc3C2=O)C[C@@H]2C[C@H]1C2(C)C [Compound 91]		NS	+	+	10	5/18	+	+	+	NS	+	+			
C[C@@H]1[C@@H](N2Cc3c(N)cccc3C2=O)C[C@H]2C[C@@H]1C2(C)C [Compound 93]		NS	NS	NS	10	8/10	NS	NS	+	NS	NS	NS			
C[C@@H]1[C@@H](N2C=C3C(=CC=C/C3=N\OO)C2=O)C[C@H]2C[C@@H]1C2(C)C [Compound 105]		NS	NS	+			NS	+	+	NS	NS	−			
CC1(C)[C@@H]2CC[C@H](CN3C(=O)C4CC=CCC4C3=O)[C@H]1C2 (stereo partly shown) [Compound 112]			NS	+				NS	+		−	−	+	+	−
CC1(C)[C@@H]2CC[C@H](CN3C(=O)C4C5C=CC(C5)C4C3=O)[C@H]1C2 (stereo partly shown) [Compound 113]			NS	+				NS	+		−	−	+	+	−
CC1(C)[C@@H]2CC[C@H](CN3C(=O)C4C5C=CC(C5)C4C3=O)[C@H]1C2 (stereo partly shown) [Compound 114]			+	+				+	+		−	−	+	+	−
CC1(C)[C@@H]2CC[C@]1(C)[C@@H](N1C(=O)C3CC=CCC3C1=O)C2 (stereo partly shown) [Compound 115]			+	+				+	+		−	−	+	+	−
CC1(C)[C@@H]2CC[C@@]1(C)[C@@H](N1C(=O)C3C4C=CC(C4)C3C1=O)C2 (stereo partly shown) [Compound 116]			NS	NS				NS	NS		−	−	NS	NS	NS
CC1(C)[C@@H]2CC[C@]1(C)[C@@H](N1C(=O)C3C4C=CC(C4)C3C1=O)C2 (stereo partly shown) [Compound 117]			+	+				+	+		−	−	+	+	−
C[C@H]1[C@H](N2C(=O)C3CC=CCC3C2=O)C[C@@H]2C[C@H]1C2(C)C (stereo partly shown) [Compound 118]			+	+				+	+		−	−	+	+	−
C[C@H]1[C@H](N2C(=O)C3C4C=CC(C4)C3C2=O)C[C@@H]2C[C@H]1C2(C)C (stereo partly shown) [Compound 119]			+	+				+	+		−	−	+	+	−

— patent publication US11440880B2, “Thalidomide analogs and methods of use” (The USA, as represented by the Secretary, Department of …, priority 2015, dated 2022)
